Measured values: PubChem BioAssay (NCI)
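A five-concentration, 48-hour dose response in 96-well plates underlies each endpoint, interpolated linearly between surrounding concentrations. TGI: concentration producing complete growth inhibition.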

Experiments:
Assay in all cases: inhibition of tumour cell growth, NCI panel, 48 h
[1] = test system: SF-295 CNS
[2] = test system: NCI-H460 lung
[3] = test system: TK-10 renal
[4] = test system: K-562 leukemia
[5] = test system: DMS 273 small cell lung
[6] = test system: SF-539 CNS
[7] = test system: DLD-1 colon
[8] = test system: NCI-H226 lung
[9] = test system: HOP-92 NSCLC
[10] = test system: KM20L2 colon
[11] = test system: COLO 205 colon
[12] = test system: SK-MEL-5 melanoma
[13] = test system: LOX IMVI melanoma
[14] = test system: HT29 colon
[15] = test system: 786-0 renal
[16] = test system: OVCAR-8 ovarian
[17] = test system: MALME-3M melanoma
[18] = test system: HCC-2998 colon
[19] = test system: ACHN renal
[20] = test system: NCI-H522 lung
[21] = test system: OVCAR-3 ovarian
[22] = test system: M14 melanoma
[23] = test system: U251 CNS
[24] = test system: SK-OV-3 ovarian
[25] = test system: UACC-62 melanoma
[26] = test system: SK-MEL-2 melanoma
[27] = test system: NCI-H23 lung
[28] = test system: SF-268 CNS
[29] = test system: SNB-78 CNS
[30] = test system: HCT-116 colon
[31] = test system: SK-MEL-28 melanoma
[32] = test system: CAKI-1 renal
[33] = test system: SN12C renal
[34] = test system: EKVX NSCLC
[35] = test system: UO-31 renal
[36] = test system: RXF 393 renal
[37] = test system: A549 NSCLC
[38] = test system: CCRF-CEM leukemia
[39] = test system: IGROV1 ovarian
[40] = test system: DMS 114 small cell lung
[41] = test system: KM12 colon
[42] = test system: LXFL 529 NSCLC
[43] = test system: SNB-75 CNS
[44] = test system: M19-MEL melanoma
[45] = test system: SR leukemia
[46] = test system: OVCAR-5 ovarian
[47] = test system: OVCAR-4 ovarian
[48] = test system: SNB-19 CNS
[49] = test system: MOLT-4 leukemia
[50] = test system: SW-620 colon
[51] = test system: MDA-MB-231 breast
[52] = test system: UACC-257 melanoma
[53] = test system: BT-549 breast
[54] = test system: HOP-62 NSCLC
[55] = test system: DU-145 prostate
[56] = test system: PC-3 prostate
[57] = test system: HL-60(TB) leukemia
[58] = test system: RPMI-8226 leukemia
[59] = test system: A498 renal
[60] = test system: T-47D breast
[61] = test system: MDA-N
[62] = test system: HS 578T breast
[63] = test system: HCT-15 colon
[64] = test system: MDA-MB-435
[65] = test system: MCF7 breast
[66] = test system: NCI/ADR-RES ovarian

With `CCOC(=O)c1sc2c(C(=O)OCC)n3cc(C)cc(C)c3c2c1O` the TGI [1] was > 100 µM, the TGI [2] was > 100 µM and the TGI [3] was > 100 µM. For the same compound, the TGI [4] was > 100 µM, the TGI [5] was > 100 µM and the TGI [6] was > 100 µM. The TGI [7] was > 100 µM, the TGI [8] was > 100 µM and the TGI [9] was > 100 µM. For the same compound, the TGI [10] was > 100 µM, the TGI [11] was > 100 µM and the TGI [12] was > 100 µM. For the same compound, the TGI [13] was > 100 µM, the TGI [14] was > 100 µM and the TGI [15] was > 100 µM. For the same compound, the TGI [16] was > 100 µM, the TGI [17] was > 100 µM and the TGI [18] was > 100 µM. For the same compound, the TGI [19] was > 100 µM, the TGI [20] was > 100 µM and the TGI [21] was > 100 µM. The TGI [22] was > 100 µM, the TGI [23] was > 100 µM and the TGI [24] was > 100 µM. The TGI [25] was > 100 µM, the TGI [26] was > 100 µM and the TGI [27] was > 100 µM. The TGI [28] was > 100 µM, the TGI [29] was > 100 µM and the TGI [30] was > 100 µM. The TGI [31] was > 100 µM, the TGI [32] was > 100 µM and the TGI [33] was > 100 µM. For the same compound, the TGI [34] was 90 µM, the TGI [35] was > 100 µM and the TGI [36] was > 100 µM. For the same compound, the TGI [37] was > 100 µM, the TGI [38] was > 100 µM and the TGI [39] was > 100 µM. The TGI [40] was > 100 µM, the TGI [41] was > 100 µM and the TGI [42] was > 100 µM. For the same compound, the TGI [43] was > 100 µM, the TGI [44] was > 100 µM and the TGI [45] was > 100 µM. The TGI [46] was > 100 µM, the TGI [47] was > 100 µM and the TGI [48] was > 100 µM. The TGI [49] was > 100 µM and the TGI [50] was > 100 µM.
In the case of `NC(N)=NC(N)=Nc1ccc(C(=O)O)cc1`, the TGI [1] is reported as > 100 µM, the TGI [2] is reported as > 100 µM and the TGI [3] is reported as > 100 µM. The TGI [4] was > 100 µM, the TGI [6] was > 100 µM and the TGI [8] was > 100 µM. The TGI [51] was > 100 µM, the TGI [9] was > 100 µM and the TGI [52] was > 100 µM. For the same compound, the TGI [11] was > 100 µM, the TGI [12] was > 100 µM and the TGI [13] was > 100 µM. For the same compound, the TGI [14] was > 100 µM, the TGI [15] was > 100 µM and the TGI [16] was > 100 µM. For the same compound, the TGI [17] was > 100 µM, the TGI [18] was > 100 µM and the TGI [19] was > 100 µM. For the same compound, the TGI [20] was > 100 µM, the TGI [53] was > 100 µM and the TGI [21] was > 100 µM. For the same compound, the TGI [54] was > 100 µM, the TGI [22] was > 100 µM and the TGI [23] was > 100 µM. The TGI [24] was > 100 µM, the TGI [55] was > 100 µM and the TGI [25] was > 100 µM. The TGI [56] was > 100 µM, the TGI [26] was > 100 µM and the TGI [57] was > 100 µM. For the same compound, the TGI [27] was > 100 µM, the TGI [28] was > 100 µM and the TGI [30] was > 100 µM. The TGI [31] was > 100 µM, the TGI [32] was > 100 µM and the TGI [58] was > 100 µM. The TGI [33] was > 100 µM, the TGI [34] was > 100 µM and the TGI [35] was > 100 µM. The TGI [36] was > 100 µM, the TGI [37] was > 100 µM and the TGI [38] was > 100 µM. For the same compound, the TGI [39] was > 100 µM, the TGI [59] was > 100 µM and the TGI [41] was > 100 µM. For the same compound, the TGI [60] was > 100 µM, the TGI [61] was > 100 µM and the TGI [43] was > 100 µM. For the same compound, the TGI [62] was > 100 µM, the TGI [45] was > 100 µM and the TGI [63] was > 100 µM. For the same compound, the TGI [46] was > 100 µM, the TGI [64] was > 100 µM and the TGI [47] was > 100 µM. For the same compound, the TGI [48] was > 100 µM, the TGI [49] was > 100 µM and the TGI [50] was > 100 µM. The TGI [65] was > 100 µM and the TGI [66] was > 100 µM.
In the case of `COC(=O)/C=C\n1nc(Br)c(=O)[nH]c1=O`, the TGI [2] is reported as > 100 µM, the TGI [3] is reported as > 100 µM and the TGI [4] is reported as > 100 µM. The TGI [6] was > 100 µM, the TGI [51] was > 100 µM and the TGI [9] was > 100 µM. The TGI [52] was > 100 µM, the TGI [11] was > 100 µM and the TGI [12] was > 100 µM. For the same compound, the TGI [13] was > 100 µM, the TGI [14] was > 100 µM and the TGI [16] was > 100 µM. The TGI [17] was > 100 µM, the TGI [18] was > 100 µM and the TGI [19] was > 100 µM. The TGI [20] was > 100 µM, the TGI [53] was > 100 µM and the TGI [21] was > 100 µM. The TGI [54] was > 100 µM, the TGI [22] was > 100 µM and the TGI [23] was > 100 µM. For the same compound, the TGI [55] was > 100 µM, the TGI [56] was > 100 µM and the TGI [26] was > 100 µM. The TGI [57] was > 100 µM, the TGI [27] was > 100 µM and the TGI [28] was > 100 µM. For the same compound, the TGI [31] was > 100 µM, the TGI [32] was > 100 µM and the TGI [58] was > 100 µM. The TGI [33] was > 100 µM, the TGI [34] was > 100 µM and the TGI [35] was > 100 µM. The TGI [36] was > 100 µM, the TGI [37] was > 100 µM and the TGI [38] was > 100 µM. The TGI [39] was > 100 µM, the TGI [59] was > 100 µM and the TGI [41] was > 100 µM. The TGI [60] was > 100 µM, the TGI [61] was > 100 µM and the TGI [43] was > 100 µM. The TGI [62] was > 100 µM, the TGI [45] was > 100 µM and the TGI [63] was > 100 µM. For the same compound, the TGI [46] was > 100 µM, the TGI [64] was > 100 µM and the TGI [47] was > 100 µM. For the same compound, the TGI [48] was > 100 µM, the TGI [50] was > 100 µM and the TGI [65] was > 100 µM. For the same compound, the TGI [66] was > 100 µM.
For `COC(=O)CC1(O)C=CC(=O)C=C1`, the TGI [1] was 17.7 µM, the TGI [2] was 5.02 µM and the TGI [3] was 16 µM. For the same compound, the TGI [4] was > 100 µM, the TGI [6] was 12.8 µM and the TGI [8] was 26.8 µM. The TGI [51] was 6.51 µM, the TGI [9] was 22.6 µM and the TGI [52] was 7.64 µM. The TGI [11] was 17.8 µM, the TGI [12] was 10.3 µM and the TGI [13] was 6.76 µM. The TGI [14] was 17.6 µM, the TGI [15] was 6.89 µM and the TGI [16] was 17.3 µM. It also gave a TGI [17] of 6.9 µM, a TGI [18] of 29.4 µM and a TGI [19] of 9.79 µM. It also gave a TGI [20] of 4.04 µM, a TGI [53] of 18.1 µM and a TGI [21] of 13.7 µM. For the same compound, the TGI [54] was 18.1 µM, the TGI [22] was 16.6 µM and the TGI [23] was 18.5 µM. The TGI [24] was 29.6 µM, the TGI [55] was 18.6 µM and the TGI [25] was 5 µM. The TGI [56] was 6.35 µM, the TGI [26] was 14.6 µM and the TGI [57] was > 22.6 µM. The TGI [27] was 10.9 µM, the TGI [28] was 14.8 µM and the TGI [30] was 26.7 µM. The TGI [31] was 7.47 µM, the TGI [32] was 11.6 µM and the TGI [58] was 31.4 µM. For the same compound, the TGI [33] was 37.6 µM, the TGI [34] was 15.5 µM and the TGI [35] was 9.93 µM. The TGI [36] was 17.9 µM, the TGI [37] was 39.4 µM and the TGI [38] was 6.11 µM. The TGI [39] was 5.04 µM, the TGI [59] was 15.9 µM and the TGI [41] was 3.46 µM. It also gave a TGI [60] of 25.7 µM, a TGI [61] of 20.9 µM and a TGI [43] of 14.2 µM. For the same compound, the TGI [62] was 39.4 µM, the TGI [45] was > 100 µM and the TGI [63] was 8.76 µM. For the same compound, the TGI [46] was 25 µM, the TGI [64] was 21.8 µM and the TGI [47] was 11.6 µM. It also gave a TGI [48] of 21.3 µM, a TGI [49] of 7.25 µM and a TGI [50] of 27.3 µM. It also gave a TGI [65] of 15.2 µM and a TGI [66] of 32.4 µM.
